Laboratory results published in patent publication US20260256920A1, “SELECTIVE HISTONE DEACETYLASE 3 (HDAC3) DERADERS AND METHODS OF USE THEREOF” (Dana-Farber Cancer Institute, Inc., priority 2022, published 2026).

Columns and labels:
VHL = molecular target: T1, VHL (Homo sapiens, UniProt P40337); experiment: Cellular VHL engagement assay (BRD4BD2-GFP with mCherry reporter cells); format: cell-based; conditions: cells stably expressing BRD4BD2-GFP with mCherry reporter, co-treated with 250 nM BRD4 degrader, 5 h
T1 construct: Cells stably expressing the BRD4BD2-GFP with mCherry reporter were seeded; endogenous in cells; host or cells: unnamed cells stably expressing the BRD4BD2-GFP with mCherry reporter
T1 sequence (P40337 whole entry, species assumed): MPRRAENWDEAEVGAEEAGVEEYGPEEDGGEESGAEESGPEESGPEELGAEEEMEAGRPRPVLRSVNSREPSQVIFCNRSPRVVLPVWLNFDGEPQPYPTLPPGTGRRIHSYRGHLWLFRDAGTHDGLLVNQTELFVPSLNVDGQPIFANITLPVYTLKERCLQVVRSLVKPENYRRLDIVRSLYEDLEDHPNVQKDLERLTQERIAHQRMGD
Protocol: Cells stably expressing the BRD4BD2-GFP with mCherry reporter were seeded at a density of 1000-4000 cells/well in 384-well plates with 50 μL per well of FluoroBrite™ DMEM media (Thermo Fisher Scientific™, A18967) supplemented with 2% FBS a day before compound treatment. Compounds 1 and 2, and 250 nM 1 ((2S,4R)-1-(2R)-2-acetamido-3-[[6-[2-[(6S)-4-(4-chlorophenyl)-2,3,9-trimethyl-6H-thieno[3,2-f][1,2,4]triazolo[4,3-a][1,4]diazepin-6-yl]acetamido]hexyl]thio]-3-methylbutanoyl]-4-hydroxy-N-[4-(4-methylthiazol-5-yl)benzyl) pyrrolidinine-2-carboxamide) were dispensed using a D300e Digital Dispenser (HP), normalized to 0.5% DMSO, and incubated with the cells for 5 h. The assay plate was imaged immediately using an Acumen® High Content Imager (TTP Labtech) with 488 nm and 561 nm lasers in a 2 μm×1 μm grid per well format. The resulting images were analyzed using CellProfiler™.
A series of image analysis steps (an ‘image analysis pipeline’) was constructed. […] A background illumination function was calculated for both red and green channels of each well individually and subtracted to correct for illumination variations across the 384-well plate from various sources of error. […] The fraction of GFP-positive cells/mCherry-positive cells in each well was then calculated, and the green and red images were rescaled for visualization. […]

HDAC3 = molecular target: T2, HDAC3 (Homo sapiens, UniProt O15379); experiment: Quantitative LC-MS proteomics of relative protein abundance in treated Kelly cells; format: cell-based; conditions: 1 μM compound, 5 hr, compared to DMSO control
T2 construct: endogenous in cells; host or cells: Kelly cells
T2 sequence (O15379 whole entry): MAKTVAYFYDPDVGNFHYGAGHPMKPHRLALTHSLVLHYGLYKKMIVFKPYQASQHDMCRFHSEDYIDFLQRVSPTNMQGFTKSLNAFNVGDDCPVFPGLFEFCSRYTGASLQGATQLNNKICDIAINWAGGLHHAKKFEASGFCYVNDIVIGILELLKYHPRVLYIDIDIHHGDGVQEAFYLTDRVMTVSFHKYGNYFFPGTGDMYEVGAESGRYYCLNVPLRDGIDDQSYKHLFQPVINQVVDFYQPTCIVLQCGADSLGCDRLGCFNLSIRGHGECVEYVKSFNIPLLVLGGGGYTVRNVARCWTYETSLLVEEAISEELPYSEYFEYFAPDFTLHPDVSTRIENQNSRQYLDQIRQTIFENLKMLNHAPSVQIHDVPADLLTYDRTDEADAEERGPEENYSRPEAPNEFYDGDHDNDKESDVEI
T2 sequence (Q9Y618 389-480 partner limits assumed): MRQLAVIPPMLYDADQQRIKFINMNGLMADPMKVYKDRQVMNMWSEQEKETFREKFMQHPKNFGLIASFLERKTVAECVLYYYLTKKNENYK
Protocol: Kelly cells were treated with DMSO or 1 μM of compound 2 or 3 for 5 hr and cells were harvested by centrifugation at 4° C. before snap freezing in liquid nitrogen. Cell lysis was performed by the addition of Urea buffer (8 M Urea, 50 mM NaCl, 50 mM 4-(2-hydroxyethyl)-1-piperazineethanesulfonic acid (EPPS) pH 8.5, Protease and Phosphatase inhibitors) followed by manual homogenization by 20 passes through a 21-gauge (1.25 in. long) needle. Lysate was clarified by centrifugation and protein quantified using bradford (Bio-Rad) assay. 50 μg of protein for each sample was reduced, alkylated and precipitated using methanol/chloroform as described in Donovan et al., eLife 7: e38430 (2018). The resulting precipitated protein was resuspended in 4 M Urea, 50 mM HEPES pH 7.4, buffer for solubilization, followed by dilution to 1 M urea with the addition of 200 mM EPPS, pH 8. Proteins were digested for 12 hours at room temperature with LysC (1:50 ratio), followed by dilution to 0.5 M urea and a second digestion step was performed by addition of trypsin (1:50 ratio) for 6 hours at 37° C. […]
The diaPASEF raw file processing and controlling peptide and protein level false discovery rates, assembling proteins from peptides, and protein quantification from peptides was performed using library free analysis in DIA-NN 1.8 (Demichev et al., Nature Methods 17:41-44 (2020)). […]

Row | SMILES | IC50 (VHL) [µM] | relative change in HDAC3 protein abundance (degradation and selectivity) (HDAC3)
1 | CCCNNC(=O)/C=C/c1ccc(CN(CCOCCC(=O)N[C@H](C(=O)N2C[C@H](O)C[C@H]2C(=O)N[C@@H](C)c2ccc(-c3scnc3C)cc2)C(C)(C)C)CCc2c[nH]c3ccccc23)cc1 [Compound 1, (2S,4R)-1-((S)-2-(3-(2-((2-(1H-indol-3-yl)ethyl) (4-((E)-3-oxo-3-(2-propylhydrazineyl)prop-1-en-1-yl)benzyl)amino)ethoxy)propanamido)-3,3-dimethylbutanoyl)-4-hydroxy-N—((S)-1-(4-(4-methylthiazol-5-yl)phenyl)ethyl) pyrrolidine-2-carboxamide] | 16.8 | 
2 | CCCNNC(=O)/C=C/c1ccc(CN(CCOCCOCCC(=O)N[C@H](C(=O)N2C[C@H](O)C[C@H]2C(=O)N[C@@H](C)c2ccc(-c3scnc3C)cc2)C(C)(C)C)CCc2c[nH]c3ccccc23)cc1 [Compound 2, (2S,4R)-1-((S)-14-(tert-butyl)-1-(1H-indol-3-yl)-12-oxo-3-(4-((E)-3-oxo-3-(2-propylhydrazineyl)prop-1-en-1-yl)benzyl)-6,9-dioxa-3,13-diazapentadecan-15-oyl)-4-hydroxy-N—((S)-1-(4-(4-methylthiazol-5-yl)phenyl)ethyl) pyrrolidine-2-carboxamide] | 6.78 | significant and selective reduction in HDAC3 protein levels
3 | CCCNNC(=O)/C=C/c1ccc(CN(CCCCCOc2cc(-c3scnc3C)ccc2CNC(=O)[C@@H]2C[C@@H](O)CN2C(=O)[C@@H](NC(=O)C2(F)CC2)C(C)(C)C)CCc2c[nH]c3ccccc23)cc1 [Compound 3, (2S,4R)—N-(2-((5-((2-(1H-indol-3-yl)ethyl) (4-((E)-3-oxo-3-(2-propylhydrazineyl)prop-1-en-1-yl)benzyl)amino)pentyl)oxy)-4-(4-methylthiazol-5-yl)benzyl)-1-((S)-2-(1-fluorocyclopropane-1-carboxamido)-3,3-dimethylbutanoyl)-4-hydroxypyrrolidine-2-carboxamide] |  | significant and selective reduction in HDAC3 protein levels
